Test results: ChEMBL document CHEMBL1138020, “Novel fibrinogen receptor antagonists. RGDF mimetics, derivatives of 4-(isoindoline-5-yl)amino-4-oxobutyric acid” (Bioorg Med Chem Lett, 2004)

Legend:
[1] = molecular target: T1, Integrin alpha-IIb/beta-3 (Homo sapiens, UniProt P05106+P08514); assay: In vitro inhibition of FITC-labeled fibrinogen binding to alphaIIb-beta3 receptor of human platelets
[2] = molecular target: T1, Integrin alpha-IIb/beta-3; assay: In vitro binding affinity for FITC-labeled fibrinogen binding to alphaIIb-beta3 receptor of human platelets
[3] = In vitro inhibition of Collagen-induced platelet aggregation in canine platelet rich plasma

T1 sequence (P05106 27-788 limits assumed): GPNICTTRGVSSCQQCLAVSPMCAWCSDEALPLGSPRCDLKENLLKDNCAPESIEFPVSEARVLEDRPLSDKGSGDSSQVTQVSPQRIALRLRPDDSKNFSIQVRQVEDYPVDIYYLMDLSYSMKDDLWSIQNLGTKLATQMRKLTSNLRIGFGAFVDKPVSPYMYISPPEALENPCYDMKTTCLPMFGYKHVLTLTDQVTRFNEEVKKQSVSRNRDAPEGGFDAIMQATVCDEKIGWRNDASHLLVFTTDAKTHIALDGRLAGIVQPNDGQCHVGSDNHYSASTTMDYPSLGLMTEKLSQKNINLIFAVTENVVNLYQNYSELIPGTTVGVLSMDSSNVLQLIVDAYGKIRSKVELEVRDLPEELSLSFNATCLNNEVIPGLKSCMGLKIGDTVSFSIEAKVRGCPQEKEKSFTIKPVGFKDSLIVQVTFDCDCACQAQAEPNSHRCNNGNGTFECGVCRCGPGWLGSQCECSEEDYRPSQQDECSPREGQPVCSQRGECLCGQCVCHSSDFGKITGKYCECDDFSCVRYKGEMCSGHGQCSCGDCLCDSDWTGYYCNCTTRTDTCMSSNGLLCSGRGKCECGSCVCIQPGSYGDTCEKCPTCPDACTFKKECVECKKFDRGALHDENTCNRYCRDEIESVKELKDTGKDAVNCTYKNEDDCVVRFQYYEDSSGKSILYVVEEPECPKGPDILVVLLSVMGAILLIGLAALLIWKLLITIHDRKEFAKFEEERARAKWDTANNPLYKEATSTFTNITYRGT
T1 sequence (P08514 32-887 limits assumed): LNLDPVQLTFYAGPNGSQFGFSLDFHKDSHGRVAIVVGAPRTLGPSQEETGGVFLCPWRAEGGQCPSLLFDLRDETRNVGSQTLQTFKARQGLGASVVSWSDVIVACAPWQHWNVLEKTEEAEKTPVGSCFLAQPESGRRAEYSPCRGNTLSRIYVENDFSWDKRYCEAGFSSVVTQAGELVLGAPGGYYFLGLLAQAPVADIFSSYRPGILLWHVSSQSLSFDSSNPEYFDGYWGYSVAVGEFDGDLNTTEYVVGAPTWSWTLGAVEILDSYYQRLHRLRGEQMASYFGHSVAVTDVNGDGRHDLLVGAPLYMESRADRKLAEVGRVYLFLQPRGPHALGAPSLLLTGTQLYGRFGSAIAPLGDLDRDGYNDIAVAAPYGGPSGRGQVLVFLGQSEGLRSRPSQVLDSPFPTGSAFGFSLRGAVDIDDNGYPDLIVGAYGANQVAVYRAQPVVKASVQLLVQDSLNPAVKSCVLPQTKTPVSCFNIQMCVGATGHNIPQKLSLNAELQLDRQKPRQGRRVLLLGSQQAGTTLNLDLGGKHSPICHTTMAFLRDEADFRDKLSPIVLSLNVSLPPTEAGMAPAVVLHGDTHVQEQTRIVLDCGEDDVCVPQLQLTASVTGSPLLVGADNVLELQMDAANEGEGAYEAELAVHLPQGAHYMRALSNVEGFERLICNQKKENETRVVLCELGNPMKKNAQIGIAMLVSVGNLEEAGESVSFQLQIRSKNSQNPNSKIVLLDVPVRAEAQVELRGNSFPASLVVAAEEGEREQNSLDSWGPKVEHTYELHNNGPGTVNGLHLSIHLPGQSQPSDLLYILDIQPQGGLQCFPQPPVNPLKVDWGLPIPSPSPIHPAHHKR
T1 sequence (P08514 891-1039 limits assumed): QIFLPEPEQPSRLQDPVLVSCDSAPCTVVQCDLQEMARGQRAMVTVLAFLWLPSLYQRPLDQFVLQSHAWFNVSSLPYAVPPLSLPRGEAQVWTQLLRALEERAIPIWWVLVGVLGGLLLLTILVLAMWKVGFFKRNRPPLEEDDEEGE

IC50 [1] [nM] | Ki [2] [nM] | IC50 [3] [nM] | Structure (SMILES)
8.3 | 4.2 | – | O=C(O)CC(NC(=O)CCC(=O)Nc1ccc2c(c1)CNC2)c1ccccc1 (stereo unspecified)
10 | 7.1 | – | O=C(O)CCNC(=O)CCC(=O)Nc1ccc2c(c1)CNC2
– | – | 1090 | N=C(N)c1ccc(NC(=O)CCC(=O)NCCC(=O)O)cc1
– | – | 290 | N=C(N)c1ccc(NC(=O)CCC(=O)NC(CC(=O)O)c2ccccc2)cc1 (stereo unspecified)
